Test results taken from US20050143628A1, “Methods for characterizing tissue or organ condition or status” (priority 2003, published 2005).
Where “and” joins values, the source holds several entries; their conditions need not be identical. Equal entries are not always repeated. Where two headings read alike, the source gives them in different places.

Columns and labels:
[1] = tested on: rat liver; conditions: for Pathological observations in liver: model false positive
Text: (§1) After 3-day treatment, rat liver samples were collected for RNA extraction and histo-pathology examination. Sera from the same rats were subjected to clinical chemistry monitoring.

[2] = tested on: rat liver; assay: Serum clinical chemistry: total bilirubin (Tbil) after 3-day treatment
Text: as §1
(§2) Liver injury was identified by the individual clinical chemistry measurement if its level was outside +/− two standard deviations of the averaged level of normal animals.

[3] = tested on: rat liver; assay: Serum clinical chemistry: alanine aminotransferase (ALT) after 3-day treatment
Text: as §1, §2

[4] = tested on: rat liver; assay: Serum clinical chemistry: alkaline phosphatase (ALP) after 3-day treatment
Text: as §1, §2

[5] = tested on: rat liver; assay: Hepatotoxicity score (HS) combined from five clinical chemistry measurements, threshold -0.25; conditions: 3-day treatment
[6] = tested on: rat liver; assay: Serum clinical chemistry: cholesterol (Chol) after 3-day treatment
Text: as §1, §2

[7] = tested on: rat liver; assay: Serum clinical chemistry: aspartate aminotransferase (AST) after 3-day treatment
Text: as §1, §2

[8] = tested on: rat liver; conditions: in vivo, 150 mg/kg/day
[9] = SD rats, 10 mg/kg/day, 3-day treatment, the other two of three treated rats
[10] = rat serum, dose 50 mg/kg/day, individual rats
[11] = rat serum, dose .001 mg/kg/day, individual rats
[12] = rat serum, dose 45 mg/kg/day, individual rats
[13] = rat serum, dose 450 mg/kg/day, individual rats
[14] = rat serum, dose 320 mg/kg/day, individual rats
[15] = rat serum, dose 100 mg/kg, individual rats
[16] = rat serum, dose 1000 mg/kg, individual rats
[17] = rat serum, dose 1 mg/kg/day, individual rats
[18] = rat serum, dose 500 mg/kg/day, individual rats
[19] = rat serum, dose 160 mg/kg, individual rats
[20] = rat serum, dose 1600 mg/kg, individual rats

Molecule: CC/C(=C(\c1ccccc1)c1ccc(OCCN(C)C)cc1)c1ccccc1 [tamoxifen, reference compound]
- Histopathology examination of liver ([1]; rat, in vivo, 5 mg/kg/day): no observable liver abnormality

Molecule: CN1C(=O)CN=C(c2ccccc2)c2cc(Cl)ccc21 [diazepam]
- TBil ([2]; rat, in vivo): 0.100

Molecule: CCN(CC)N=O [diethylnitrosamine]
- Pathological observations in liver ([1]; 100 mg/kg/day treated group, 3-day treatment): noticeable pathological changes

Molecule: C[C@]12CC[C@@H]3c4ccc(O)cc4CC[C@H]3[C@@H]1CC[C@@H]2O[C@@H]1O[C@H](C(=O)O)[C@@H](O)[C@H](O)[C@H]1O [estradiol glucuronide]
- Liver injury by ALT [3, 9]: showed liver injury
- Liver injury by ALP [4, 9]: showed liver injury
- Histopathology examination of liver ([1]; SD rats, 10 mg/kg/day treatment group, 3-day treatment): Cellular abnormality
- Liver damage call by hepatotoxicity score versus individual clinical chemistry measures ([5]; SD rat, high dose 10 mg/kg/day): positives detected by the hepatotoxicity score

Molecule: C[C@H]1C(=O)O[C@@H]2CCN3CC=C(COC(=O)[C@](C)(O)[C@]1(C)O)[C@H]23 [monocrotaline, reference compound]
- ALT [3, 10]: 44.000 and 64.000 and 610.000
- ALP [4, 10]: 194.000 and 211.000 and 298.000
- Chol. [6, 10]: 54.000 and 61.000 and 69.000
- Histopathology examination of liver ([1]; SD rat, 50 mg/kg/day, 3-day treatment, HS false negative sample): no observable liver abnormality
- AST [7, 10]: 123.000 and 135.000 and 270.000
- TBil [2, 10]: 0.200 (2×) and 1.500
- Liver damage call by hepatotoxicity score versus individual clinical chemistry measures ([5]; one SD rat, high dose 50 mg/kg/day): false negatives

Molecule: TNFalpha
- ALT [3, 11]: 53.000 and 48.000 and 55.000
- ALP [4, 11]: 728.000 and 255.000 and 312.000
- Chol. [6, 11]: 50.000 and 60.000 (2×)
- AST [7, 11]: 70.000 (2×) and 59.000
- TBil [2, 11]: 0.200 (2×) and 0.100

Molecule: O=C1NC(=O)C(c2ccccc2)(c2ccccc2)N1 [phenytoin]
- ALT [3, 12]: 26.000 and 19.000
- ALT [3, 13]: 49.000 and 38.000 and 24.000
- ALP [4, 12]: 199.000 and 214.000
- ALP [4, 13]: 255.000 and 233.000 and 312.000
- Chol. [6, 12]: 77.000 and 71.000
- Chol. [6, 13]: 61.000 and 73.000 and 66.000
- AST [7, 12]: 65.000 and 81.000
- AST [7, 13]: 130.000 and 71.000 and 65.000
- TBil [2, 12]: 0.200
- TBil [2, 13]: 0.200 and 0.100 (2×)

Molecule: microcystin
- ALT ([3]; rat, in vivo): 140.000 and 258.000 and 144.000
- ALP ([4]; rat, in vivo): 518.000 and 427.000 and 514.000
- Chol. ([6]; rat, in vivo): 84.000 and 67.000 and 95.000
- AST ([7]; rat, in vivo): 204.000 and 384.000 and 296.000
- TBil ([2]; rat, in vivo): 0.600 and 0.400

Molecule: CC(C)(C)c1ccc(C(O)CCCN2CCC(C(O)(c3ccccc3)c3ccccc3)CC2)cc1 (centres unmarked) [terfenadine]
- TBil ([2]; rat, in vivo, 15 mg/kg): 0.100
- TBil ([2]; rat, in vivo, 150 mg/kg): 0.100

Molecule: C1CCC(C(CC2CCCCN2)C2CCCCC2)CC1 (centres unmarked) [perhexilene, reference compound]
- ALT [3, 14]: 51.000 and 129.000 and 31.000
- ALP [4, 14]: 248.000 and 340.000 and 245.000
- Chol. [6, 14]: 45.000 and 44.000 and 66.000
- AST [7, 14]: 103.000 and 116.000 and 98.000
- TBil [2, 14]: 0.100

Molecule: penicillin
- ALT [3, 15]: 51.000 and 41.000 and 44.000
- ALT [3, 16]: 52.000 (2×) and 25.000 and 42.000
- ALP [4, 15]: 290.000 and 247.000
- ALP [4, 16]: 215.000 (2×) and 247.000 and 253.000
- Chol. [6, 15]: 49.000 and 37.000 and 69.000
- Chol. [6, 16]: 41.000 (2×) and 43.000 and 73.000
- AST [7, 15]: 127.000 and 144.000
- AST [7, 16]: 134.000 (2×) and 80.000 and 90.000
- TBil [2, 15]: 0.100
- TBil [2, 16]: 0.100

Molecule: CC[C@H]1/C=C/C=C/C[C@@H](C)[C@H](O)[C@@](C)(O)C(=O)[C@@H](C)[C@H](O)[C@@H](C)C(=O)[C@@H](C)[C@H](O)[C@@H](C)/C=C/C(=O)O[C@@H]2[C@H](C)[C@H](CC1)O[C@]1(CC[C@H](C)[C@H](C[C@@H](C)O)O1)[C@H]2C [oligomycin]
- ALT [3, 17]: 44.000 and 46.000 and 58.000
- ALP [4, 17]: 361.000 and 289.000 and 397.000
- Chol. [6, 17]: 47.000 and 72.000 and 59.000
- AST [7, 17]: 72.000 (2×) and 75.000
- TBil [2, 17]: 0.200

Molecule: CC1=C(/C=C/C(C)=C/C=C/C(C)=C/CO)C(C)(C)CCC1 [Retinol]
- ALT [3, 18]: 27.000 and 31.000 and 37.000
- ALP [4, 18]: 259.000 and 241.000 and 348.000
- Chol. [6, 18]: 67.000 and 50.000 and 47.000
- AST [7, 18]: 88.000 and 157.000 and 112.000
- TBil [2, 18]: 0.200

Molecule: CCSCC[C@H](N)C(=O)O [L-ethionine]
- Pathological observations in liver ([1]; 50 mg/kg/day treated group, 3-day treatment): noticeable pathological changes

Molecule: CN(C)C(=N)N=C(N)N [metformin]
- Histopathology examination of liver ([1]; rat, in vivo, 900 mg/kg/day): no observable liver abnormality
- Liver damage call by hepatotoxicity score versus individual clinical chemistry measures ([5]; one SD rat, 900 mg/kg/day): false negatives

Molecule: CN(C)C=O [dimethlformamide]
- Pathological observations in liver ([1]; 1000 mg/kg/day treated group, 3-day treatment): noticeable pathological changes

Molecule: CN[C@@H]1[C@H](O)[C@H](NC)[C@H]2O[C@@]3(O)C(=O)C[C@@H](C)O[C@H]3O[C@@H]2[C@H]1O [spectinomycin]
- ALT [3, 19]: 52.000 and 36.000 and 46.000
- ALT [3, 20]: 60.000 and 44.000 and 30.000
- ALP [4, 19]: 174.000 and 181.000
- ALP [4, 20]: 246.000 and 189.000 and 176.000
- Chol. [6, 19]: 60.000 and 59.000 and 54.000
- Chol. [6, 20]: 36.000 and 62.000 and 26.000
- AST [7, 19]: 83.000 and 74.000 and 70.000
- AST [7, 20]: 98.000 and 95.000 and 86.000
- TBil [2, 19]: 0.100
- TBil [2, 20]: 0.100

Molecule: aflatoxin B
- ALT ([3]; rat, in vivo): 81.000 and 48.000 and 59.000
- ALP ([4]; rat, in vivo): 297.000 and 166.000 and 217.000
- Chol. ([6]; rat, in vivo): 64.000 and 75.000 and 63.000
- AST ([7]; rat, in vivo): 206.000 and 132.000 and 156.000
- TBil ([2]; rat, in vivo): 0.200

Molecule: CC(=O)Oc1ccccc1C(=O)O [aspirin]
- Histopathology examination of liver ([1]; rat, in vivo, 150 mg/kg/day): Cellular abnormality
- Liver damage call by hepatotoxicity score versus individual clinical chemistry measures [8]: positives detected by the hepatotoxicity score

Molecule: Cn1c(=O)c2[nH]cnc2n(C)c1=O [theophylline]
- TBil ([2]; rat, in vivo, 75 mg/kg): 0.100
